Results reported in ChEMBL document CHEMBL4346765, “Design, synthesis and biological evaluation of novel dithiocarbamate-substituted diphenylaminopyrimidine derivatives as BTK inhibitors” (Bioorg Med Chem, 2019).
One block for each molecule: values may come before it. Activity calls are given as the source filed them. The calls are words filed in the database; no cut-off is given here.

Columns and labels:
Raji [1] = test: Antiproliferative activity against human Raji cells assessed as reduction in cell growth incubated for 48 hrs by MTS assay
[2] = target: T1, Tyrosine-protein kinase BTK (Homo sapiens, UniProt Q06187); test: Inhibition of BTK in anti-IgM-stimulated human Ramos cells assessed as reduction in PLCgamma2 phosphorylation at Y1217 residues at 10 uM incubated for 4 hrs followed by anti-IgM stimulation for 30 mins by Western blot analysis; type: cell-based
[3] = target: T1, Tyrosine-protein kinase BTK; test: Inhibition of human recombinant full length BTK expressed in baculovirus in Sf9 insect cells using Poly (4:1 Glu, Tyr) as substrate incubated for 1 hr by ADP-Glo assay
Ramos [4] = test: Antiproliferative activity against human Ramos cells assessed as reduction in cell growth incubated for 48 hrs by MTS assay
PC-3 = test: Cytotoxicity against human PC3 cells assessed as reduction in cell viability at 0.1 to 40 uM incubated for 48 hrs by MTS assay; type: functional, cell-based; conditions: PC-3, 48 h
BJ = test: Cytotoxicity against human BJ cells assessed as reduction in cell viability at 0.1 to 40 uM incubated for 48 hrs by MTS assay; type: cell-based
MDA-MB-231 = test: Cytotoxicity against human MDA-MB-231 cells assessed as reduction in cell viability at 0.1 to 40 uM incubated for 48 hrs by MTS assay; type: functional, cell-based; conditions: MDA-MB-231, 48 h
HT-29 = test: Cytotoxicity against human HT-29 cells assessed as reduction in cell viability at 0.1 to 40 uM incubated for 48 hrs by MTS assay; type: functional, cell-based; conditions: HT-29, 48 h
HepG2 = test: Cytotoxicity against human HepG2 cells assessed as reduction in cell viability at 0.1 to 40 uM incubated for 48 hrs by MTS assay; type: functional, cell-based; conditions: HepG2, 48 h
A549 = test: Cytotoxicity against human A549 cells assessed as reduction in cell viability at 0.1 to 40 uM incubated for 48 hrs by MTS assay; type: functional, cell-based; conditions: A549, 48 h
Jurkat = test: Cytotoxicity against human Jurkat cells assessed as reduction in cell viability at 0.1 to 40 uM incubated for 48 hrs by MTS assay; type: functional, cell-based
KARPAS-299 = test: Cytotoxicity against human KARPAS299 cells assessed as reduction in cell viability at 0.1 to 40 uM incubated for 48 hrs by MTS assay; type: functional, cell-based; conditions: KARPAS-299, 48 h
786-0 = test: Cytotoxicity against human 786-O cells assessed as reduction in cell viability at 0.1 to 40 uM incubated for 48 hrs by MTS assay; type: functional, cell-based; conditions: 786-0, 48 h
HeLa = test: Cytotoxicity against human HeLa cells assessed as reduction in cell viability at 0.1 to 40 uM incubated for 48 hrs by MTS assay; type: functional, cell-based
Ramos [5] = test: Antitumor activity in human Ramos cells xenografted in NOD/SCID mouse assessed as reduction in tumor growth at 30 mg/kg/day, ip administered daily for 14 days; type: functional; conditions: 336 h, read-out: TGI
[6] = Cytotoxicity against human HELF cells assessed as reduction in cell viability at 0.1 to 40 uM incubated for 48 hrs by MTS assay; type: cell-based
HEF = test: Cytotoxicity against human HEF cells assessed as reduction in cell viability at 0.1 to 40 uM incubated for 48 hrs by MTS assay; type: cell-based
K562 = test: Cytotoxicity against human K562 cells assessed as reduction in cell viability at 0.1 to 40 uM incubated for 48 hrs by MTS assay; type: functional, cell-based; conditions: K562, 48 h
NCI-H1299 = test: Cytotoxicity against human H1299 cells assessed as reduction in cell viability at 0.1 to 40 uM incubated for 48 hrs by MTS assay; type: functional, cell-based; conditions: NCI-H1299, 48 h
NCI-H3122 = test: Cytotoxicity against human NCI-H3122 cells assessed as reduction in cell viability at 0.1 to 40 uM incubated for 48 hrs by MTS assay; type: functional, cell-based; conditions: NCI-H3122, 48 h
MCF-10A = test: Cytotoxicity against human MCF10A cells assessed as reduction in cell viability at 0.1 to 40 uM incubated for 48 hrs by MTS assay; type: cell-based
MCF7 = test: Cytotoxicity against human MCF7 cells assessed as reduction in cell viability at 0.1 to 40 uM incubated for 48 hrs by MTS assay; type: functional, cell-based; conditions: MCF7, 48 h
Ramos [7] = test: Potency index,ratio of Ibrutinib IC50 to compound IC50 for antiproliferative activity against human Ramos cells assessed as reduction in cell growth incubated for 48 hrs by MTS assay; type: functional
Raji [8] = test: Potency index,ratio of Ibrutinib IC50 to compound IC50 for antiproliferative activity against human Raji cells assessed as reduction in cell growth incubated for 48 hrs by MTS assay; type: functional
[9] = Toxicity in NOD/SCID mouse xenografted with human Ramos cells assessed as induction of morphological lesions in heart at 60 mg/kg/day, ip administered daily for 14 days by H and E staining based histologic analysis; type: organism-based; conditions: in vivo, 336 h
[10] = target: T1, Tyrosine-protein kinase BTK; test: Inhibition of BTK in anti-IgM-stimulated human Ramos cells assessed as reduction in PLCgamma2 phosphorylation at Y1217 residues at 0.01 to 10 uM incubated for 4 hrs followed by anti-IgM stimulation for 30 mins by Western blot analysis; type: cell-based
[11] = target: T1, Tyrosine-protein kinase BTK; test: Inhibition of BTK in anti-IgM-stimulated human Ramos cells assessed as reduction in autophosphorylation at Y223 residues at 0.01 to 10 uM incubated for 4 hrs followed by anti-IgM stimulation for 30 mins by Western blot analysis; type: cell-based
Raji [12] = test: Potency index,ratio of Spebrutinib IC50 to compound IC50 for antiproliferative activity against human Raji cells assessed as reduction in cell growth incubated for 48 hrs by MTS assay; type: functional
[13] = target: T1, Tyrosine-protein kinase BTK; test: Inhibition of BTK in anti-IgM-stimulated human Ramos cells assessed as reduction in Akt phosphorylation at 0.01 to 10 uM incubated for 4 hrs followed by anti-IgM stimulation for 30 mins by Western blot analysis; type: cell-based
Ramos [14] = test: Potency index,ratio of Spebrutinib IC50 to compound IC50 for antiproliferative activity against human Ramos cells assessed as reduction in cell growth incubated for 48 hrs by MTS assay; type: functional
[15] = target: T1, Tyrosine-protein kinase BTK; test: Inhibition of BTK in anti-IgM-stimulated human Ramos cells assessed as reduction in Erk phosphorylation at 0.01 to 10 uM incubated for 4 hrs followed by anti-IgM stimulation for 30 mins by Western blot analysis; type: cell-based
[16] = Toxicity in NOD/SCID mouse xenografted with human Ramos cells assessed as changes in body weight at 30 to 60 mg/kg/day, ip administered daily for 14 days; type: organism-based; conditions: in vivo, 336 h
[17] = Toxicity in NOD/SCID mouse xenografted with human Ramos cells assessed as induction of morphological lesions in kidney at 60 mg/kg/day, ip administered daily for 14 days by H and E staining based histologic analysis; type: organism-based; conditions: in vivo, 336 h
[18] = Toxicity in NOD/SCID mouse xenografted with human Ramos cells assessed as induction of morphological lesions in lung at 60 mg/kg/day, ip administered daily for 14 days by H and E staining based histologic analysis; type: organism-based; conditions: in vivo, 336 h
Ramos [19] = test: Antitumor activity in human Ramos cells xenografted in NOD/SCID mouse assessed as reduction in tumor growth at 60 mg/kg/day, ip administered daily for 14 days; type: functional; conditions: 336 h, read-out: TGI
[20] = Toxicity in NOD/SCID mouse xenografted with human Ramos cells assessed as induction of morphological lesions in liver at 60 mg/kg/day, ip administered daily for 14 days by H and E staining based histologic analysis; type: organism-based; conditions: in vivo, 336 h
[21] = Toxicity in NOD/SCID mouse xenografted with human Ramos cells assessed as induction of morphological lesions in spleen at 60 mg/kg/day, ip administered daily for 14 days by H and E staining based histologic analysis; type: organism-based; conditions: in vivo, 336 h
Ramos [22] = test: Induction of apoptosis in human Ramos cells assessed as increase in cleaved PARP1 protein expression at 0.01 to 10 uM incubated for 8 hrs by Western blotting analysis; type: functional, cell-based

T1 sequence (Q06187 whole entry): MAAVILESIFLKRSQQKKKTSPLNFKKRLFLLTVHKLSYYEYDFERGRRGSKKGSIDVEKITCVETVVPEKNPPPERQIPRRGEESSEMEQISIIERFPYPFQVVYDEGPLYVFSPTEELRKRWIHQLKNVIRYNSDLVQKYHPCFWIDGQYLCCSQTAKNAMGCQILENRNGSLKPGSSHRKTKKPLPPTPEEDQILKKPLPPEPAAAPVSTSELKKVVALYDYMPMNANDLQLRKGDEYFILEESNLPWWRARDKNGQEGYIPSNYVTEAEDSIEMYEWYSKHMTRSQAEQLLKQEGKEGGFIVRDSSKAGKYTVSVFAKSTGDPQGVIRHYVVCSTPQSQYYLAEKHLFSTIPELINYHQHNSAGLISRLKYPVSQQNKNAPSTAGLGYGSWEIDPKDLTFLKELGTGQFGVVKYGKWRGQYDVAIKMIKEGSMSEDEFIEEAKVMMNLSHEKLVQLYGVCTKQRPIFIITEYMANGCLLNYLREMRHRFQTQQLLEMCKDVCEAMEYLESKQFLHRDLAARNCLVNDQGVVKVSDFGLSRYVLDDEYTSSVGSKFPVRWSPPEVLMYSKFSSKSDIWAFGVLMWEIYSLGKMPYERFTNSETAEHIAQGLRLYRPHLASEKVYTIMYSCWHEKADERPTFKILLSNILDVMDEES

IC50 (Raji [1]): > 40 µM | inhibition [2]: inactive | IC50 [3]: > 0.5 µM | IC50 (Ramos [4]): > 40 µM
SMILES: CCC(=O)Nc1cccc(Nc2nc(Nc3ccc(OCCSC(=S)NCc4cccnc4)cc3)ncc2F)c1

IC50 (Raji [1]): 21.6 µM | IC50 (Ramos [4]): 5.44 µM
SMILES: C=CC(=O)Nc1cccc(Nc2nc(Nc3ccc(OCCOC)cc3)ncc2F)c1 [SPEBRUTINIB]
IC50 (PC-3): 22.2 µM | IC50 (BJ): 27.6 µM | IC50 (MDA-MB-231): > 40 µM | IC50 (HT-29): 18.9 µM | IC50 (HepG2): 33.5 µM | IC50 (A549): 1.98 µM | IC50 (Jurkat): 6.7 µM | IC50 (KARPAS-299): 20.3 µM | IC50 (786-0): 14.9 µM | IC50 (HeLa): 17.4 µM | inhibition in vivo at 30 mg/kg/day (Ramos [5]): 28.9% | IC50 [6]: 16 µM | IC50 (HEF): 22.6 µM | IC50 (K562): 12.6 µM | IC50 (NCI-H1299): 38.5 µM | IC50 (NCI-H3122): 32.5 µM | IC50 (MCF-10A): 4.36 µM | IC50 (MCF7): 29 µM

IC50 (Raji [1]): 0.31 µM | IC50 [3]: 0.0184 µM | IC50 (Ramos [4]): 1.13 µM
SMILES: C=CC(=O)Nc1cccc(Nc2nc(Nc3ccc(NC(=O)CSC(=S)NCc4cccnc4)cc3)ncc2F)c1

IC50 (Raji [1]): 9.75 µM | IC50 [3]: 0.115 µM | IC50 (Ramos [4]): 9.46 µM
SMILES: C=CC(=O)Nc1cccc(Nc2nc(Nc3ccc(OCCSC(=S)NC4CCCCC4)cc3)ncc2F)c1

IC50 (Raji [1]): 9.58 µM | IC50 [3]: 0.0982 µM | IC50 (Ramos [4]): 9.31 µM
SMILES: C=CC(=O)Nc1cccc(Nc2nc(Nc3ccc(OCCSC(=S)NC(C)C)cc3)ncc2F)c1

IC50 (Raji [1]): 0.34 µM | IC50 [3]: 0.0237 µM | IC50 (Ramos [4]): 1.22 µM
SMILES: C=CC(=O)Nc1cccc(Nc2nc(Nc3ccc(NC(=O)CCSC(=S)NCc4cccnc4)cc3)ncc2F)c1

IC50 (Raji [1]): 8.25 µM | IC50 [3]: 0.0632 µM | IC50 (Ramos [4]): 1.36 µM
SMILES: C=CC(=O)Nc1cccc(Nc2nc(Nc3ccc(OCCCSC(=S)N4CCN(C(C)C)CC4)cc3)ncc2F)c1

IC50 (Raji [1]): 0.706 µM | inhibition [10]: Dose-dependent effect | inhibition [11]: Active | inhibition [13]: Active | IC50 [3]: 0.00115 µM | inhibition [15]: inactive | IC50 (Ramos [4]): 0.357 µM
SMILES: C=CC(=O)Nc1cccc(Nc2nc(Nc3ccc(OCCSC(=S)NCc4cccnc4)cc3)ncc2F)c1
IC50 (PC-3): 8.25 µM | IC50 (BJ): 12.8 µM | IC50 (MDA-MB-231): 35.4 µM | Ratio IC50 (Ramos [7]): 10 | Ratio IC50 (Raji [8]): 10 | IC50 (HT-29): 10.2 µM | Activity [9]: Non-Toxic | IC50 (HepG2): 16.2 µM | Ratio IC50 (Raji [12]): 10 | IC50 (A549): 3.2 µM | IC50 (Jurkat): 2.49 µM | IC50 (KARPAS-299): > 40 µM | IC50 (786-0): 4.96 µM | IC50 (HeLa): 8.74 µM | Ratio IC50 (Ramos [14]): 10 | inhibition in vivo at 30 mg/kg/day (Ramos [5]): 21.5% | IC50 [6]: 19.3 µM | IC50 (HEF): 28.4 µM | IC50 (K562): 3.27 µM | Activity [16]: Non-Toxic | Activity [17]: Non-Toxic | IC50 (NCI-H1299): 17.9 µM | Activity [18]: Non-Toxic | IC50 (NCI-H3122): 33.4 µM | IC50 (MCF-10A): 8.62 µM | IC50 (MCF7): 17.4 µM | inhibition in vivo at 60 mg/kg/day (Ramos [19]): 57.8% | Activity [20]: Non-Toxic | Activity [21]: Non-Toxic | Activity (Ramos [22]): Active

IC50 (Raji [1]): > 40 µM | IC50 [3]: 0.264 µM | IC50 (Ramos [4]): 14.5 µM
SMILES: C=CC(=O)Nc1cccc(Nc2nc(Nc3ccc(OCCSC(=S)N4CCN(C(=O)OC(C)(C)C)CC4)cc3)ncc2F)c1
